Key:
[1] = Weight loss effects in obese mice: body weight, body weight gain and food intake; type: in vivo, C57BL/6 male mice; details: high-fat diet mice; oral, 28 days; Example 14 195 mg/kg, Example 5 65 mg/kg; compared to control group; FIGS. 1 and 2
Protocol: (§1) 4-week-old C57BL/6 male mice were purchased from Orient BIO Inc. (Korea). Animals were raised for 10 weeks in a breeding room maintained at a temperature of 23° C., 55% humidity, illumination of 300 to 500 lux, a 12-h light/dark (L/D) cycle, and ventilation of 10 to 18 times/hr. Experiments included animals weighing […] or higher. Animals were fed ad libitum a high-fat diet (45 kcal % from fat, D12451, Research Diet) and tap water as drinking water.
(§2) Each group of animals was administered 195 mg/kg of the prodrug compound of Example 14 (hereinafter often simply referred to as “A31”) and 65 mg/kg of the prodrug compound of Example 5 (hereinafter often simply referred to as “A32”) for 4 weeks, as set forth in Table 1 below. Observations were made on changes in body weight and food intake, with respect to a time course of administration. After administration was complete, biochemical indices were assayed including changes in adipose tissue distribution, hepatic functions, and lipid and enzyme levels.

[2] = Biochemical indices in the blood of C57BL/6 mice after administration; type: in vivo; details: oral, 28 days; Example 14 195 mg/kg, Example 5 65 mg/kg; compared to control group; FIG. 4
Protocol: as §1, §2
FIGS. 4 and 5 show changes of biochemical indices in the blood of C57BL/6 mice to which the prodrug composition of Example 5 and the prodrug composition of Example 14 were administered.

10,11-diacetoxy-2,6,6-trimethyl-1,2,6,7,8,9-hexahydro-phenanthro[1,2b]furan [Example 14]
body weight (g) [1]: significant reductions | body weight gain (%) [1]: significant reductions | blood levels of GOT/GTP enzymes [2]: decreased

CC(=O)Oc1c2c(c3ccccc3c1OC(C)=O)OC(C)(C)CC2 [Example 5, 5,6-diacetoxy-2,2-dimethyl-3,4-dihydro-2H-benzo[h]chromene]
body weight (g) [1]: excellent weight-loss effects | body weight gain (%) [1]: negative (−) value | blood levels of GOT/GTP enzymes [2]: decreased
